Reference: PMC9192638, “Compact IF2 allows initiator tRNA accommodation into the P site and gates the ribosome to elongation” (Nature Communications, 2022)

What was measured:
[1] = target: T1, IF2 (initiation factor 2) (Pseudomonas aeruginosa, UniProt Q9HV55); assay: cryo-EM structure; format: binding; settings: pH 7.6, 10 mM MgCl2
T1 construct: gene infB; full-length; N-terminal 6xHis-SMT3 tag removed by Ulp1; expressed in E. coli BL21(DE3) Star; compact model residues 337-835

[2] = target: T2, initiation factor 2 (IF2) from Pseudomonas aeruginosa (Pseudomonas aeruginosa PAO1, UniProt Q9HV55 1-840); assay: cryo-EM structure; rotated 70S-IC with extended IF2-GDPCP (structures II-A and II-B); 2 uM 70 S ribosome, 25 uM mRNA, 10 uM fMet-tRNA, 30 uM IF2, 2 mM GDPCP; 10 mM Hepes 7.6, 60 mM NH4Cl, 15 mM KCl, 10 mM MgCl2; settings: both partners purified
T2 construct: Translation initiation factor IF2, Pseudomonas aeruginosa PAO1; residues modelled in the maps: 248-332 (N2 sub-domain region, extended IF2) and 337-835 (compact IF2); Co-purifies with GDP; GDPCP was added to the complex, so the sample held IF2-GDP (compact) and IF2-GDPCP (extended); also called PaeIF2; IF2-GDP; source: E. coli BL21 (DE3) Star, purified (HisTrap, Ulp1 cleavage, reverse HisTrap, …)
T2 sequence (Q9HV55 whole entry): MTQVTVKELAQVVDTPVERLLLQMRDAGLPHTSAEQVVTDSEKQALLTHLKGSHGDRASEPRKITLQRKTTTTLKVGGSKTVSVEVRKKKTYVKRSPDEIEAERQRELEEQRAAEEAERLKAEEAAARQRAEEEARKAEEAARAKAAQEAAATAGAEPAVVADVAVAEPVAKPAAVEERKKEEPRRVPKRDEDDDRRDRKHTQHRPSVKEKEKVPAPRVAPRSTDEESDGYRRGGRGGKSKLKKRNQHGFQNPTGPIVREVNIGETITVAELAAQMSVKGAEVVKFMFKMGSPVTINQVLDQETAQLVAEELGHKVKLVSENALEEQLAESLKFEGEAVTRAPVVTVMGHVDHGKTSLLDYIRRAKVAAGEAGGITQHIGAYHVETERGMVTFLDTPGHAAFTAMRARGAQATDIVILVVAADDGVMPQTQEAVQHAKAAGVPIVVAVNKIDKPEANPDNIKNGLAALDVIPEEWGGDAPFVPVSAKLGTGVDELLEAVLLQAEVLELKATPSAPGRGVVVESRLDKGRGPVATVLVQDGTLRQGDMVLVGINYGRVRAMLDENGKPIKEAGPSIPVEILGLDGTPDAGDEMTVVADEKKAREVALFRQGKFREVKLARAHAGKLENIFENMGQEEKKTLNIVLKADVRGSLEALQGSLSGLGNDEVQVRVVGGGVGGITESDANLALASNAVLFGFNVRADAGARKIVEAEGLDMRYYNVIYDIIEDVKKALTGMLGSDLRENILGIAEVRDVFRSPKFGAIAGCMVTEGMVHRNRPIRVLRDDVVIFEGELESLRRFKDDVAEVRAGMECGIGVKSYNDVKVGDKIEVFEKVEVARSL

T1 sequence (Q9HV55 whole entry, the tested form may be a part): as the sequence (Q9HV55 whole entry) above

In the case of Nc1nc2c(ncn2[C@@H]2O[C@H](COP(=O)(O)OP(=O)(O)O)[C@@H](O)[C@H]2O)c(=O)[nH]1 [GDP], the cryo-EM structure ([1]; compact IF2 on non-rotated 70S ribosome initiation complex with mRNA and fMet-tRNA, GDP co-purified with IF2, G-domain nucleotide site) is reported as “visualizes the GDP nucleotide bound in the G-domain”.

Nc1nc2c(ncn2[C@@H]2O[C@H](COP(=O)(O)OP(=O)(O)CP(=O)(O)O)[C@@H](O)[C@H]2O)c(=O)[nH]1 [GDPCP, β,γ-methyleneguanosine 5’-triphosphate] was tested, and the cryo-EM structure ([1]; extended IF2 on rotated 70S ribosome initiation complex with mRNA and fMet-tRNA, 2 mM GDPCP added, G-domain nucleotide site with Mg2+) was “well-defined density for extended IF2 and GDPCP in the G-domain”.

B1: ribosomal protein uL11 (natural protein, UniProt Q9HWC5 1-143, looked up)
chain: MAKKIQAYIKLQVKAGQANPSPPVGPALGQHGVNIMEFCKAFNAKTQGQEPGLPTPVIITVYSDRSFTFETKSTPAAVLLKKAAGITSGSARPNSQKVGTVTRAQLEEIAKTKQADLTAADLDAAVRTIAGSARSMGLNVEGV
notes: 50 S ribosomal protein uL11, Pseudomonas aeruginosa PAO1, as part of the 70 S ribosome; Stood in the assay as a subunit of the whole 70 S ribosome with mRNA and fMet-tRNA; also called uL11-NTD; source: endogenous, in 70 S ribosomes purified from P. aeruginosa PAO1 (sucrose cushion, sucrose density gradients)
B1: binds [2].

B2: ribosomal protein uL16 (natural protein, UniProt Q9HWE2 1-137, looked up)
chain: MLQPKRTKFRKQMTGHNRGLAHRGSKVSFGEYALKATSRGRLTARQIESARRALTRHVKRGGKIWIRVFPDKPVTKKPLEVRMGKGKGGVEYWVAQIQPGKVLYEIEGVSEELAREAFALAAAKLPLATSFVKRTVM
notes: 50 S ribosomal protein uL16, Pseudomonas aeruginosa PAO1, as part of the 70 S ribosome; Stood in the assay as a subunit of the whole 70 S ribosome with mRNA and fMet-tRNA; source: endogenous, in 70 S ribosomes purified from P. aeruginosa PAO1 (sucrose cushion, sucrose density gradients)
B2: binds [2].
